# Measured values: US12582687B2, “Composition based on Crocus sativus and Cannabis sativa” (priority 2021, dated 2026)
# Where two headings read alike, the source gives them in different places.
# Columns and labels:
# [1] = target: acetylcholinesterase (AchE) (Homo sapiens, UniProt P22303); test: Acetylcholinesterase activity, in vitro colorimetric Ellman method; type: biochemical; settings: AchE 0.22 U/ml, ATCl 1 mM, 20 min
# Source text: The aim of this assay is to compare acetylcholinesterase (AchE) activity in the presence of the composition according to the invention, with a safranal/cannabidiol (CBD) ratio of 0.03, with acetylcholinesterase activity in the presence of safranal or CBD alone.
# AchE activity was monitored and measured in vitro by colorimetric reaction using the Ellman method. Acetylthiocholine (ATCl) is degraded to thiocholine and acetic acid by AChE. The thiocholine then reacts with the dithiobisnitrobenzoic ion (DTNB) and the resulting ion (TNB) gives a yellow coloration. In a 96-well plate, the following amounts were deposited in each well: 55 μl buffer (Tris-HCl 50 mM), 75 μl DTNB (5 mM), 25 μl AchE (0.22 U/ml), 25 μl test sample (buffer or safranal (1.2 μg/ml), or CBD (40 μg/ml), or safranal (1.2 μg/ml)+CBD (40 μg/ml).
# At the last moment, 25 μL of ATCl (1 mM) was added to initiate the reaction. The absorbance was then monitored at 405 nM for 20 min. For each well, the absorbance values over time (Ax) are normalized relative to the first absorbance measurement (AT0) according to the following formula: Normalized absorbance (An)=Ax−AT0. The percentage of AchE inhibition was determined by comparing the slopes of the curves (in the linear part) against the control according to the following equation [Math 1]. […]
# [2] = tested on: anxiety symptoms in healthy adults under stress; settings: CBD alone without THC, cited from earlier work
# acetylcholinesterase (AchE), sequence (P22303 32-614, species assumed): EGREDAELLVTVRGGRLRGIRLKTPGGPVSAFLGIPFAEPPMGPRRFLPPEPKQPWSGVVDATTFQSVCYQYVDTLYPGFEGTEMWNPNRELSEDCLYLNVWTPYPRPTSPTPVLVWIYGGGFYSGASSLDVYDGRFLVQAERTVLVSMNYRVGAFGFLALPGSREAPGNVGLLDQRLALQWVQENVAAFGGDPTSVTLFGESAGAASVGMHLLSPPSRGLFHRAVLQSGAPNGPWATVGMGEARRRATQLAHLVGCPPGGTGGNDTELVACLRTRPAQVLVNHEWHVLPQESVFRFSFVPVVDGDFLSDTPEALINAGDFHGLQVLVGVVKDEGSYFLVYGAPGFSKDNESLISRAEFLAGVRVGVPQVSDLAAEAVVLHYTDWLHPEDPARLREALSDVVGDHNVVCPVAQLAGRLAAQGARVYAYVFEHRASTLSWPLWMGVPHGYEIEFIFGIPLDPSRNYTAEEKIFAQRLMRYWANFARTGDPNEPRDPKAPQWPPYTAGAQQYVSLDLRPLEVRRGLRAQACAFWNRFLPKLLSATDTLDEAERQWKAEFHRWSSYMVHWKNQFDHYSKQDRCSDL
SMILES,"inhibition at 40 µg/mL ([1]; CBD 40 μg/ml test sample, read-out: decrease in AchE activity (percentage of AchE inhibition relative to control))",effect on anxiety symptoms ([2]; dose 300 mg),effect on anxiety symptoms ([2]; higher dose 900 mg),effect on anxiety symptoms ([2]; lower dose 100 mg),AchE activity compared with the control ([1]; safranal 1.2 μg/ml test sample)
"C=C(C)[C@@H]1CCC(C)=C[C@H]1c1c(O)cc(CCCCC)cc1O [CBD, 2-[(1R,6R)-6-isopropenyl-3-methylcyclohex-2-en-1-yl]-5-pentylbenzene-1,3-diol]",69.8%,reducing anxiety symptoms,no effect,no effect,
CC1=C(C=O)C(C)(C)CC=C1 [safranal],,,,,unchanged
